Article PMC7532997, “Cytotoxic Constituents of the Bark of Hypericum roeperianum towards Multidrug-Resistant Cancer Cells” (Evidence-based Complementary and Alternative Medicine : eCAM, 2020)

Tests used:
[1] = test system: 9 tested cancer cell lines; experiment: Resazurin reduction assay (RRA), whole panel; type: cell-based; settings: for IC50: whole cell line panel, 72 h, read-out: IC50 in the cancer cells tested; for cytotoxic effect over the panel (in words): 9 tested cancer cell lines
Text: (§1) Cell lines used in this work included drug-sensitive and drug-resistant phenotypes of earlier reported origin. They were all provided by Prof. Dr. Thomas Efferth from his cell lines collection; they have being used in cytotoxicity screening by our team for a decade. These include two hematological cancer cell lines, namely, the drug-sensitive CCRF-CEM leukemia cell line and its multidrug-resistant P-gp-over-expressing subline CEM/ADR5000 cells and […] carcinoma cell lines, namely, U87.MG glioblastoma cell line and its EGFR-transfected U87.MGΔEGFR subline, HCT116 (p53^+/+) colon cancer cell line and its knockout clone HCT116 (p53^−/^−), and MDA-MB-231-pcDNA3 breast cancer cell line and its BCRP-transfected multidrug-resistant MDA-MB-231-BCRP clone 23 cell line, as well as the normal AML12 hepatocytes, used to compare with HepG2 liver cancer cells.
(§2) The RRA was applied to evaluate the cytotoxicity of botanicals, the isolated phytochemicals (1–5, 7, and 8), and doxorubicin on the cell growth as reported earlier. Cells treated with various samples at different concentrations were incubated for 72 h in humidified 5% CO2 atmosphere at 37°C. Cells were further coloured with resazurin and incubated for 1–2 h; the fluorescence was further measured with an Infinite M2000 Pro™ plate reader (Tecan, Crailsheim, Germany) at 544 nm as the excitation wavelength and 590 nm as the emission wavelength. The IC50 values represented the concentrations of the sample required to inhibit 50% of cell proliferation and were calculated from a calibration curve by linear regression using Microsoft Excel 2007 [29].

CCRF-CEM leukemia cells = experiment: Resazurin reduction assay (RRA), 72 h; type: cell-based; settings: Homo sapiens, 72 h incubation
Text: as §1, §2

[2] = test system: CEM/ADR5000 leukemia cells (P-gp-overexpressing); experiment: Resazurin reduction assay (RRA), 72 h; type: cell-based; settings: Homo sapiens; CEM/ADR5000, 72 h incubation
Text: as §1, §2

[3] = test system: HCT116 (p53+/+) colon adenocarcinoma cells; experiment: Resazurin reduction assay (RRA), 72 h; type: cell-based; settings: Homo sapiens, HCT-116, 72 h incubation
Text: as §1, §2

[4] = test system: HCT116 (p53-/-) colon cancer cells; experiment: Resazurin reduction assay (RRA), 72 h; type: cell-based; settings: Homo sapiens, HCT-116, 72 h incubation
Text: as §1, §2

[5] = test system: HepG2 hepatocarcinoma cells; experiment: Resazurin reduction assay (RRA), 72 h; type: cell-based; settings: Homo sapiens; HepG2, 72 h incubation
Text: as §1, §2

[6] = test system: MDA-MB-231-BCRP breast cancer cells; experiment: Resazurin reduction assay (RRA), 72 h; type: cell-based; settings: 72 h incubation
Text: as §1, §2

[7] = test system: MDA-MB-231-pcDNA breast cancer cells; experiment: Resazurin reduction assay (RRA), 72 h; type: cell-based; settings: 72 h incubation
Text: as §1, §2

U87MG glioblastoma cells = experiment: Resazurin reduction assay (RRA), 72 h; type: cell-based; settings: Homo sapiens, U-87 MG, 72 h incubation
Text: as §1, §2

[8] = test system: U87MG.ΔEGFR glioblastoma cells; experiment: Resazurin reduction assay (RRA), 72 h; type: cell-based; settings: 72 h incubation
Text: as §1, §2

normal AML12 hepatocytes = experiment: Resazurin reduction assay (RRA), 72 h; type: cell-based; settings: for Selectivity index: IC50 normal AML12 hepatocytes divided by IC50 HepG2; for IC50: Mus musculus, AML12 normal hepatocytes, 72 h incubation
Text: as §1, §2

K562 leukemia cells = test system: K562 leukemia cells; design: method as in PMID 31479710; settings: cited from earlier work
[9] = test system: all cancer cell lines tested in the present study; design: method as in PMID 24075210; settings: cited from earlier work
CEM-ADR5000 cells = test system: CEM-ADR5000 cells; design: method as in PMID 31360210; settings: cited from earlier work
HepG2 cells = test system: HepG2 cells; design: method as in PMID 31360210; settings: cited from earlier work
CCRF-CEM cells [10] = experiment: Flow cytometric cell cycle distribution (propidium iodide); type: cell-based; settings: 24 h
Protocol: Various concentrations of botanical HRB, phytochemical 1, and doxorubicin or DMSO (solvent control) were used to treat CCRF-CEM cells (1 × 10^6 cells). Cells were further incubated for 24 h in humidified 5% CO2 atmosphere at 37°C and analyzed using a BD Accury C6 Flow Cytometer (BD Biosciences, Heidelberg, Germany) by measuring the propidium iodide fluorescence of individual nucleus, as described earlier. Experiments were conducted thrice independently with three parallel measurements.

CCRF-CEM cells [11] = experiment: Apoptosis by annexin V/PI staining; type: cell-based; settings: 24 h, 2 × IC50
Protocol: The CCRF-CEM cells (1 × 10^6; 1 ml) were also treated with HRB, compound 1 and doxorubicin for 24 h (in humidified 5% CO2 atmosphere at 37°C), and apoptosis was further assessed by flow cytometry using the flouresceinisothiocynate- (FITC-) conjugated annexin V/PI assay kit (eBioscience™Annexin V; Invitogen, San Diego, USA), as previously published. Briefly, treated cells were centrifuged at 1200 rpm for 5 min, then washed twice with ice-cold PBS, resuspended in 500 µl binding buffer, and stained with 5 µl FITC-conjugated annexin V ([…]) and 10 µl PI ([…]). After 15 min incubation at room temperature (RT) in the dark, cells were analyzed using a BD Accury C6 Flow Cytometer (BD Biosciences). Cells stained with only annexin V were evaluated as being in early apoptosis. Cells stained with both annexin V and propidium iodide were evaluated as being in late apoptosis or in a necrotic stage.

[12] = test system: caspases 3/7 in CCRF-CEM cells; experiment: Caspase-Glo 3/7 assay; type: cell-based; settings: 6 h, compared to untreated cells
Protocol: (§3) Different concentrations of HRB and compound 1 were used to treat CCRF-CEM cells for 6 h. The activities of caspases were determined using Caspase-Glo 3/7, Caspase-Glo 8, and Caspase-Glo 9 Assay kits (Promega, Mannheim, Germany) by measuring the luminescence using an Infinite M2000 ProTM plate reader (Tecan), as reported previously.

[13] = test system: caspase 8 in CCRF-CEM cells; experiment: Caspase-Glo 8 assay; type: cell-based; settings: 6 h, compared to untreated cells
Protocol: as §3

[14] = test system: caspase 9 in CCRF-CEM cells; experiment: Caspase-Glo 9 assay; type: cell-based; settings: 6 h, compared to untreated cells
Protocol: as §3

[15] = test system: reactive oxygen species in CCRF-CEM cells; experiment: ROS production (H2DCFH-DA staining, flow cytometry); type: cell-based; settings: 24 h
Protocol: Various concentrations of HRB and triterpenoid 1 were used to treat CCRF-CEM cells (1 × 10^6 cells); DMSO (solvent control); or hydrogen peroxide (H2O2; positive control). After 24 h incubation in humidified 5% CO2 atmosphere at 37°C, the production of ROS was evaluated using 2′,7′-dichlorodihydrofluorescein diacetate (H2DCFH-DA) (Sigma-Aldrich) staining, as described earlier.

## C[C@H]1C(=O)CC[C@@H]2[C@]1(C)CC[C@H]1[C@@]2(C)CC[C@@]2(C)C3CC(C)(C)CC[C@]3(C)CC[C@]12C (stereo partly drawn) [Compound 2, fridelan-3-one]
[1]
  IC50: > 100 µM

## O=c1c2cc(O)c(O)cc2oc2cc(O)cc(O)c12 [Compound 4, 1,3,6,7-tetrahydroxyxanthone]
CCRF-CEM leukemia cells
  IC50: 19.9 ± 2.12 µM
[2]
  IC50: 23.2 ± 1.66 µM
[3]
  IC50: 40.2 ± 3.09 µM
[4]
  IC50: > 154 µM
[5]
  IC50: 32.4 ± 3.72 µM
[6]
  IC50: 20.4 ± 1.17 µM
[7]
  IC50: > 154 µM
U87MG glioblastoma cells
  IC50: 106 ± 6.74 µM
[8]
  IC50: 30.4 ± 2.91 µM
Normal AML12 hepatocytes
  Selectivity index: 1.40
  IC50: 45.4 ± 3.52 µM
[1]
  cytotoxic effect over the panel (in words): selective cytotoxic effects

## O=c1c2ccc(O)c(O)c2oc2cc(O)cc(O)c12 [Compound 5, 1,3,5,6-tetrahydroxyxanthone]
CCRF-CEM leukemia cells
  IC50: 38.6 ± 2.11 µM
[2]
  IC50: 38.5 ± 4.07 µM
[3]
  IC50: 75.5 ± 6.1 µM
[4]
  IC50: 112 ± 8.49 µM
[5]
  IC50: 64.7 ± 5.77 µM
[6]
  IC50: 62.9 ± 5.32 µM
[7]
  IC50: 75.2 ± 4.88 µM
U87MG glioblastoma cells
  IC50: 61.4 ± 3.39 µM
[8]
  IC50: 59 ± 6.01 µM
Normal AML12 hepatocytes
  IC50: 150 ± 7.03 µM
K562 leukemia cells
  cytotoxic effect against K562: 12.98 µg/mL
K562 leukemia cells; read-out: cytotoxic effect against K562
  IC50: 49.9 µM

## cudraxanthone I
[9]
  IC50: < 10 µM

## C=C(C)[C@@H]1CC[C@]2(C(=O)O)CC[C@]3(C)[C@H](CC[C@@H]4[C@@]5(C)CC[C@H](O)C(C)(C)[C@@H]5CC[C@]43C)[C@@H]12 [Compound 6, betulinic acid]
CEM-ADR5000 cells
  IC50: 7.65 µM
HepG2 cells
  IC50: 44.2 µM

## COc1cc(C2Oc3ccc4c(=O)c5c(O)cc(O)cc5oc4c3OC2CO)cc(OC)c1O (stereo not drawn) [Compound 7, 3′-hydroxymethyl-2′-(4″-hydroxy-3″,5″-dimethoxyphenyl)-5′,6′:5,6-(6,8-dihydroxyxanthone)-1′,4′-dioxane]
CCRF-CEM leukemia cells
  IC50: 23.3 ± 1.46 µM
[2]
  IC50: 54 ± 4.38 µM
[3]
  IC50: > 91.7 µM
[4]
  IC50: > 91.7 µM
[5]
  IC50: 25.2 ± 1.69 µM
[6]
  IC50: 22.2 ± 2.88 µM
[7]
  IC50: 20.7 ± 1.32 µM
U87MG glioblastoma cells
  IC50: 29.7 ± 1.77 µM
[8]
  IC50: 12.7 ± 0.75 µM
Normal AML12 hepatocytes
  Selectivity index: 0.83
  IC50: 20.9 ± 1.17 µM
[1]
  cytotoxic effect over the panel (in words): selective cytotoxic effects

## COc1cccc2c(=O)c3cc(O)ccc3oc12 [Compound 3, 2-hydroxy-5-methoxyxanthone]
CCRF-CEM leukemia cells
  IC50: 16.8 ± 0.96 µM
[2]
  IC50: 53 ± 3.08 µM
[3]
  IC50: 46.7 ± 3.38 µM
[4]
  IC50: > 165 µM
[5]
  IC50: 44.2 ± 2.65 µM
[6]
  IC50: 33.6 ± 1.99 µM
[7]
  IC50: 43.8 ± 3.47 µM
U87MG glioblastoma cells
  IC50: 74.4 ± 4.75 µM
[8]
  IC50: 45 ± 5.22 µM
Normal AML12 hepatocytes
  IC50: > 165 µM
[1]
  cytotoxic effect over the panel (in words): selective cytotoxic effects

## C[C@H]1C(=O)CC[C@@H]2[C@]1(C)CC[C@H]1[C@@]2(C)CC[C@@]2(C(=O)O)C3CC(C)(C)CC[C@]3(C)CC[C@]12C (stereo partly drawn) [Compound 1, trichadonic acid]
CCRF-CEM leukemia cells
  IC50: 14.4 ± 0.53 µM
[2]
  IC50: 18.3 ± 1.56 µM
[3]
  IC50: 17.4 ± 1.84 µM
[4]
  IC50: 44.2 ± 3.21 µM
[5]
  IC50: 21.7 ± 3.18 µM
[6]
  IC50: 15 ± 1.17 µM
[7]
  IC50: 16.5 ± 0.74 µM
U87MG glioblastoma cells
  IC50: 16.2 ± 1.09 µM
[8]
  IC50: 14.7 ± 1.55 µM
Normal AML12 hepatocytes
  IC50: 47.3 ± 0.81 µM
[1]
  IC50: 14.4 to 44.2 µM
CCRF-CEM cells [10]
  cell cycle arrest (phase, in words): cell cycle arrest in the Go/G1 phase
CCRF-CEM cells [10]; 1/4 × IC50
  cells in sub-G0/G1 phase: 1.86%
CCRF-CEM cells [10]; 2 × IC50
  cells in sub-G0/G1 phase: 17.40%
CCRF-CEM cells [11]
  annexin V (+)/PI (+) cells: 52.5%
[12]
  increase of caspases 3/7 activity: 2.52 fold
[13]
  increase of caspase 8 activity: 2.62 fold
[14]
  increase of caspase 9 activity: 2.23 fold
[15]; 7.22 µM
  ROS production: 12.35%
[15]; 57.76 µM
  ROS production: 68.12%
[15]; 2 × IC50
  ROS production: ≤ 68.12%

## COc1cccc2c1C(=O)c1c(O)c3c(c(O)c1C2=O)C[C@@](O)(C(=O)CO)C[C@@H]3O[C@H]1C[C@H](N)[C@H](O)[C@H](C)O1 [Doxorubicin, reference compound]
CCRF-CEM leukemia cells
  IC50: 0.02 µM
[4]
  IC50: 1.78 ± 0.08 µM
[5]
  IC50: 4.56 ± 0.48 µM
[6]
  IC50: 0.79 ± 0.08 µM
[7]
  IC50: 0.13 ± 0.01 µM
U87MG glioblastoma cells
  IC50: 0.26 ± 0.03 µM
[8]
  IC50: 0.98 ± 0.07 µM
Normal AML12 hepatocytes
  IC50: 52.9 ± 4.09 µM
CCRF-CEM cells [10]
  cell cycle arrest (phase, in words): S and G2/M phase arrest

## OO [H2O2, Hydrogen peroxide, reference compound]
[15]; 50 µM
  ROS levels: 94.30%

## COc1cc(C2Oc3ccc4c(=O)c5ccccc5oc4c3OC2CO)cc(OC)c1O (stereo not drawn) [Compound 8, 3′-hydroxymethyl-2′-(4″-hydroxy-3″,5″-dimethoxyphenyl)-5′,6′:5,6-(xanthone)-1′,4′-dioxane]
CCRF-CEM leukemia cells
  IC50: 16.3 ± 2.12 µM
[2]
  IC50: 43.5 ± 2.97 µM
[3]
  IC50: 37.8 ± 2.92 µM
[4]
  IC50: > 85.5 µM
[5]
  IC50: 31.3 ± 1.19 µM
[6]
  IC50: 30.5 ± 1.88 µM
[7]
  IC50: 36.9 ± 2.73 µM
U87MG glioblastoma cells
  IC50: 35.5 ± 3.28 µM
[8]
  IC50: 30.6 ± 3.14 µM
Normal AML12 hepatocytes
  IC50: > 85.5 µM
[1]
  cytotoxic effect over the panel (in words): selective cytotoxic effects
